ChEMBL document CHEMBL4507279, “Data for DCP probe BI-9627” (2021)

Experiments:
[1] = target: Mitogen-activated protein kinase kinase kinase kinase 4 (Homo sapiens) (UniProt O95819); settings: Compound concentration 1000.0 nM
[2] = target: Tyrosine-protein kinase ABL2 (Homo sapiens) (UniProt P42684); settings: Compound concentration 1000.0 nM
[3] = target: Ribosomal protein S6 kinase alpha-5 (Homo sapiens) (UniProt O75582); settings: Compound concentration 1000.0 nM
[4] = test system: Mast/stem cell growth factor receptor Kit (Homo sapiens), P10721 [L576P]; settings: Compound concentration 1000.0 nM
[5] = test system: Receptor-type tyrosine-protein kinase FLT3 (Homo sapiens), P36888 [UNDEFINED MUTATION]; settings: Compound concentration 1000.0 nM
[6] = target: Serine/threonine-protein kinase Nek1 (Homo sapiens) (UniProt Q96PY6); settings: Compound concentration 1000.0 nM
[7] = target: Dual specificity testis-specific protein kinase 1 (Homo sapiens) (UniProt Q15569); settings: Compound concentration 1000.0 nM
[8] = target: Cyclin-dependent kinase 7 (Homo sapiens) (UniProt P50613); settings: Compound concentration 1000.0 nM
[9] = target: Receptor tyrosine-protein kinase erbB-3 (Homo sapiens) (UniProt P21860); settings: Compound concentration 1000.0 nM
[10] = target: Serine/threonine-protein kinase D1 (Homo sapiens) (UniProt Q15139); settings: Compound concentration 1000.0 nM
[11] = target: Cyclin-dependent kinase-like 2 (Homo sapiens) (UniProt Q92772); settings: Compound concentration 1000.0 nM
[12] = target: Tyrosine-protein kinase Fgr (Homo sapiens) (UniProt P09769); settings: Compound concentration 1000.0 nM
[13] = target: Ribosomal protein S6 kinase alpha-6 (Homo sapiens) (UniProt Q9UK32); settings: Compound concentration 1000.0 nM
[14] = target: Membrane-associated tyrosine- and threonine-specific cdc2-inhibitory kinase (Homo sapiens) (UniProt Q99640); settings: Compound concentration 1000.0 nM
[15] = target: Serine/threonine-protein kinase PAK 4 (Homo sapiens) (UniProt O96013); settings: Compound concentration 1000.0 nM
[16] = target: Serine/threonine-protein kinase DCLK2 (Homo sapiens) (UniProt Q8N568); settings: Compound concentration 1000.0 nM
[17] = target: Serine/threonine-protein kinase TAO2 (Homo sapiens) (UniProt Q9UL54); settings: Compound concentration 1000.0 nM
[18] = target: Casein kinase II subunit alpha (Homo sapiens) (UniProt P68400); settings: Compound concentration 1000.0 nM
[19] = target: Phosphorylase b kinase regulatory subunit alpha, liver isoform (Homo sapiens) (UniProt P46019); settings: Compound concentration 1000.0 nM
[20] = target: Mitogen-activated protein kinase kinase kinase 3 (Homo sapiens) (UniProt Q99759); settings: Compound concentration 1000.0 nM
[21] = target: Tyrosine-protein kinase receptor TYRO3 (Homo sapiens) (UniProt Q06418); settings: Compound concentration 1000.0 nM
[22] = target: Ephrin type-A receptor 1 (Homo sapiens) (UniProt P21709); settings: Compound concentration 1000.0 nM
[23] = target: Rhodopsin kinase GRK1 (Homo sapiens) (UniProt Q15835); settings: Compound concentration 1000.0 nM
[24] = test system: Epidermal growth factor receptor (Homo sapiens), P00533 [UNDEFINED MUTATION]; settings: Compound concentration 1000.0 nM
[25] = target: Calcium/calmodulin-dependent protein kinase type IV (Homo sapiens) (UniProt Q16566); settings: Compound concentration 1000.0 nM
[26] = target: BMP-2-inducible protein kinase (Homo sapiens) (UniProt Q9NSY1); settings: Compound concentration 1000.0 nM
[27] = target: Sodium-dependent dopamine transporter (Homo sapiens, UniProt Q01959); settings: Compound concentration 10.0 uM
[28] = target: Casein kinase I isoform gamma-1 (Homo sapiens) (UniProt Q9HCP0); settings: Compound concentration 1000.0 nM
[29] = target: Eukaryotic translation initiation factor 2-alpha kinase 1 (Homo sapiens) (UniProt Q9BQI3); settings: Compound concentration 1000.0 nM
[30] = target: Cyclin-dependent kinase 11A (Homo sapiens) (UniProt Q9UQ88); settings: Compound concentration 1000.0 nM
[31] = test system: Epidermal growth factor receptor (Homo sapiens), P00533 [G719S]; settings: Compound concentration 1000.0 nM
[32] = target: AP2-associated protein kinase 1 (Homo sapiens) (UniProt Q2M2I8); settings: Compound concentration 1000.0 nM
[33] = target: Mitogen-activated protein kinase 7 (Homo sapiens) (UniProt Q13164); settings: Compound concentration 1000.0 nM
[34] = target: Insulin receptor (Homo sapiens) (UniProt P06213); settings: Compound concentration 1000.0 nM
[35] = target: Muscarinic acetylcholine receptor M5 (Homo sapiens) (UniProt P08912); settings: Compound concentration 10.0 uM
[36] = test system: Tyrosine-protein kinase ABL1 (Homo sapiens), P00519 [E255K]; settings: Compound concentration 1000.0 nM
[37] = target: Serine/threonine-protein kinase PLK1 (Homo sapiens) (UniProt P53350); settings: Compound concentration 1000.0 nM
[38] = target: Serine/threonine-protein kinase tousled-like 1 (Homo sapiens) (UniProt Q9UKI8); settings: Compound concentration 1000.0 nM
[39] = target: Cyclin-dependent kinase-like 3 (Homo sapiens) (UniProt Q8IVW4); settings: Compound concentration 1000.0 nM
[40] = target: Inhibitor of nuclear factor kappa-B kinase subunit alpha (Homo sapiens) (UniProt O15111); settings: Compound concentration 1000.0 nM
[41] = target: Sigma intracellular receptor 2 (Homo sapiens) (UniProt Q5BJF2); settings: Compound concentration 10.0 uM
[42] = target: Ephrin type-A receptor 6 (Homo sapiens) (UniProt Q9UF33); settings: Compound concentration 1000.0 nM
[43] = target: Serine/threonine-protein kinase WNK4 (Homo sapiens) (UniProt Q96J92); settings: Compound concentration 1000.0 nM
[44] = target: Serine/threonine-protein kinase WNK1 (Homo sapiens) (UniProt Q9H4A3); settings: Compound concentration 1000.0 nM
[45] = target: Serine/threonine-protein kinase STK11 (Homo sapiens) (UniProt Q15831); settings: Compound concentration 1000.0 nM
Serine/threonine-protein kinase STK11 (Homo sapiens), sequence (Q15831 whole entry): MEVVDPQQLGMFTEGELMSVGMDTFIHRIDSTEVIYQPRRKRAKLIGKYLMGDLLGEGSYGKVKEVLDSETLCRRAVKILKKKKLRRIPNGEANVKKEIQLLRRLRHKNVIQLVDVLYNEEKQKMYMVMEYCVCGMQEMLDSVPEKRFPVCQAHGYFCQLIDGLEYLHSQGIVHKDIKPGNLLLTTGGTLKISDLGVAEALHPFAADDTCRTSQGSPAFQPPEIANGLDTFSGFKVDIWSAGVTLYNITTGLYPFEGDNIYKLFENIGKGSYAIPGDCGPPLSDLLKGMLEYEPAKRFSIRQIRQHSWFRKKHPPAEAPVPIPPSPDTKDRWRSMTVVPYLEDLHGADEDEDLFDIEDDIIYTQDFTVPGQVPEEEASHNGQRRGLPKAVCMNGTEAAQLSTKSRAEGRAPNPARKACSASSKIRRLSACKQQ

Serine/threonine-protein kinase WNK1 (Homo sapiens), sequence (Q9H4A3 whole entry, looked up): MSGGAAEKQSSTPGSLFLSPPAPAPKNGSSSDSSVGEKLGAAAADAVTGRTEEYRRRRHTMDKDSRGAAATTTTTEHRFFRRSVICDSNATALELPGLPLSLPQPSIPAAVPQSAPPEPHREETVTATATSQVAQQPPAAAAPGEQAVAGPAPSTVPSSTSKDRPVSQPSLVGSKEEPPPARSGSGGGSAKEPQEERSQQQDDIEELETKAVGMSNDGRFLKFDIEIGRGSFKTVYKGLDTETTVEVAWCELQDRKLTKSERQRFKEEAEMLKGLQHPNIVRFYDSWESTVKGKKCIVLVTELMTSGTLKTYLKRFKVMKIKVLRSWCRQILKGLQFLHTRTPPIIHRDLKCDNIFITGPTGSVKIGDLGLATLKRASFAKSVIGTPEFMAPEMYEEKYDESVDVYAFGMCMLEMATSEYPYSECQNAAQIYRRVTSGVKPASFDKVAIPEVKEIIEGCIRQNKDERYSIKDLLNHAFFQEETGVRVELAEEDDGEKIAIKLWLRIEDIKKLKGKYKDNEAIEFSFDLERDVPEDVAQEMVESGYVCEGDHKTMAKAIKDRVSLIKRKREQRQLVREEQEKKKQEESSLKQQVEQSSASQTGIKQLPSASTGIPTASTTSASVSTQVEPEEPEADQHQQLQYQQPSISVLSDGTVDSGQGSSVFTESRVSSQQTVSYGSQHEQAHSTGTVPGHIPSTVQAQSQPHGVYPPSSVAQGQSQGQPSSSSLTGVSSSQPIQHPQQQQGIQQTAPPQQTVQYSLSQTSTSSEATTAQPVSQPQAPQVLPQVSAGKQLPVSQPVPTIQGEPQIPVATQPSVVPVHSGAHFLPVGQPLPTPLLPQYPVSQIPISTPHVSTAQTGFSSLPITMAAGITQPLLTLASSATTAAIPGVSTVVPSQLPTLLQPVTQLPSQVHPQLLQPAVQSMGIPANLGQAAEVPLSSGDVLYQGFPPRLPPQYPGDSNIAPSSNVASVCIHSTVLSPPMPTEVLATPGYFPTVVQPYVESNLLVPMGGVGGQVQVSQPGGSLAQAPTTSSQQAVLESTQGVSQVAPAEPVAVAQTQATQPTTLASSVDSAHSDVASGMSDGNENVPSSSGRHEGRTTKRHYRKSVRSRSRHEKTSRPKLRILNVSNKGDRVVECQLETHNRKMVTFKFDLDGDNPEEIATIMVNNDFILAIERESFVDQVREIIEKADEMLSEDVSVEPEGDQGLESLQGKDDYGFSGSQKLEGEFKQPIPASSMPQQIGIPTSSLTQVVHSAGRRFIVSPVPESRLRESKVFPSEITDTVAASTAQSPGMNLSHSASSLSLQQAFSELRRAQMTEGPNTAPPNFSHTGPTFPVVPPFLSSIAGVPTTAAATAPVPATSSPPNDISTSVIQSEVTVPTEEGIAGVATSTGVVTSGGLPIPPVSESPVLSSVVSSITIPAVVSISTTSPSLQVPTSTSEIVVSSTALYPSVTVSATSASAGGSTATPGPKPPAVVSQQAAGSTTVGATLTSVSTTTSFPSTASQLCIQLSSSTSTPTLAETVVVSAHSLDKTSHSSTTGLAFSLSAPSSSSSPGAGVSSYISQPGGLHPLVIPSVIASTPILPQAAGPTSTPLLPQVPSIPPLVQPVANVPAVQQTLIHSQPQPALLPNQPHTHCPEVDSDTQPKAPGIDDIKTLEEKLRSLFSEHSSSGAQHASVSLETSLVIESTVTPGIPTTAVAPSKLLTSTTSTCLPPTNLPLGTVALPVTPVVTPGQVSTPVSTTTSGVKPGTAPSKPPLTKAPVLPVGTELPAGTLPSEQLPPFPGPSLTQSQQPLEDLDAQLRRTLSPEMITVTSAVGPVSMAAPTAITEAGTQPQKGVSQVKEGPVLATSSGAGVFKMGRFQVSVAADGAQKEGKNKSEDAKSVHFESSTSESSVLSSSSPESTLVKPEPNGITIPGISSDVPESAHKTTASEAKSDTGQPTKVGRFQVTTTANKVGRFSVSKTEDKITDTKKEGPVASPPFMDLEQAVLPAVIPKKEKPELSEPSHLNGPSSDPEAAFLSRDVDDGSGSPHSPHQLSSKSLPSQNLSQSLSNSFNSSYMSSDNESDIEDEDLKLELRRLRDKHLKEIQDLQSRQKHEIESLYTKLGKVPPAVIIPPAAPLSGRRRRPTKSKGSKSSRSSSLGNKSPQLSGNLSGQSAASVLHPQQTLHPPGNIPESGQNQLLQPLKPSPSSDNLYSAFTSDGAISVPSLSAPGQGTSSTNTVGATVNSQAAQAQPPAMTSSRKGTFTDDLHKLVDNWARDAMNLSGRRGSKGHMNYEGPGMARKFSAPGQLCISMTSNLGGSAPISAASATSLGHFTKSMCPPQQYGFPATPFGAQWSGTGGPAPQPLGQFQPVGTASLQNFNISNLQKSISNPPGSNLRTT
Insulin receptor (Homo sapiens), sequence (P06213 28-758 limits assumed): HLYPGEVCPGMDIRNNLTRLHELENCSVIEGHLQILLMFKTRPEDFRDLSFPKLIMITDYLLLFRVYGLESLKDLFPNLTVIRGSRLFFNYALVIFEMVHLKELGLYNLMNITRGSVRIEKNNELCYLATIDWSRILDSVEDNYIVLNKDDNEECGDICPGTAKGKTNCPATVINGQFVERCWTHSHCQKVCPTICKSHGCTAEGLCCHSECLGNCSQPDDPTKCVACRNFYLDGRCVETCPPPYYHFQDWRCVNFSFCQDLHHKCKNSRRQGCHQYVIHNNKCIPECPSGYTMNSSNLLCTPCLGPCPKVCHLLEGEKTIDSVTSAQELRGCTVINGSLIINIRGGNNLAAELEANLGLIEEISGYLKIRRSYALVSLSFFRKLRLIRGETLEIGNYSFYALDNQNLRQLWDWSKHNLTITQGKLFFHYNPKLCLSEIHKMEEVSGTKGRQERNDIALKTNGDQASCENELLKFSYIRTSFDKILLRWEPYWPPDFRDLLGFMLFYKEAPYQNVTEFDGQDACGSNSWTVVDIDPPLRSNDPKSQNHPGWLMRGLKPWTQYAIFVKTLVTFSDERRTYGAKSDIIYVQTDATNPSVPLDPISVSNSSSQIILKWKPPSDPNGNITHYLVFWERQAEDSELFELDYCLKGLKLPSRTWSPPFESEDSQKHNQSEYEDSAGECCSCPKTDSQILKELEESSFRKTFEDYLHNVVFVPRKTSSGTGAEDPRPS
Insulin receptor (Homo sapiens), sequence (P06213 763-1382 limits assumed): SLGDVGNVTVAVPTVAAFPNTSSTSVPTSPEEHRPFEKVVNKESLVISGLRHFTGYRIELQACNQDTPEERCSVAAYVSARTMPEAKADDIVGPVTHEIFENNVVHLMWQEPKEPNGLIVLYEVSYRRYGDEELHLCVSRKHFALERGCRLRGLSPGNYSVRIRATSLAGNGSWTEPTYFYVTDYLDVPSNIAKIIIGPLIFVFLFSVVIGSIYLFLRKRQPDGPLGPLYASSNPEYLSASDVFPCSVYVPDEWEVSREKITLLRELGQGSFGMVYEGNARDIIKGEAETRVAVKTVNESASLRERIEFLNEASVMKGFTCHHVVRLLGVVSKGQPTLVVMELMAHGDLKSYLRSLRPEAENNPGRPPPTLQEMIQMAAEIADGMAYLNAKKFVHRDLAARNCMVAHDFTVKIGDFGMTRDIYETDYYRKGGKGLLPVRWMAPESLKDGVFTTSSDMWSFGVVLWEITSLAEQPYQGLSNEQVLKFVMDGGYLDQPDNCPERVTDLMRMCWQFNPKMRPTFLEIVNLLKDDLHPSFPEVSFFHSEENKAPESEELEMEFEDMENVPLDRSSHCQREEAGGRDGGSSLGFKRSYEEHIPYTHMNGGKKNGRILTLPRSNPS
Mitogen-activated protein kinase kinase kinase 3 (Homo sapiens), sequence (Q99759 whole entry): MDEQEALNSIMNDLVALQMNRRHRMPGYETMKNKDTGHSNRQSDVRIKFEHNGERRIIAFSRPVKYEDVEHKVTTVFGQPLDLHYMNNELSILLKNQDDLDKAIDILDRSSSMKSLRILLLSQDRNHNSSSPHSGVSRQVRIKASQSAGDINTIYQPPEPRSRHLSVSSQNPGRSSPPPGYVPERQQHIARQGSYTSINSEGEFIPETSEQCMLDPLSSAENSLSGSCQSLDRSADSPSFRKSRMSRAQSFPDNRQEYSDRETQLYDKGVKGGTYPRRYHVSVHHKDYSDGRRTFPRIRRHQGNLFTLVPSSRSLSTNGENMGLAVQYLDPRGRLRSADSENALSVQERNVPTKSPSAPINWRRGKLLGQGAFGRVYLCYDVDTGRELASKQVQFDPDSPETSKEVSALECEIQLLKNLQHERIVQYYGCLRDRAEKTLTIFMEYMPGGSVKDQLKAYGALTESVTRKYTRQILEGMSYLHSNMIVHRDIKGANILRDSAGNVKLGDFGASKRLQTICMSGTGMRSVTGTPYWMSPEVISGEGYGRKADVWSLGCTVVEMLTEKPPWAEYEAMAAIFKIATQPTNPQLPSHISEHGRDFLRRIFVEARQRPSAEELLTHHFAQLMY
Sigma intracellular receptor 2 (Homo sapiens), sequence (Q5BJF2 whole entry): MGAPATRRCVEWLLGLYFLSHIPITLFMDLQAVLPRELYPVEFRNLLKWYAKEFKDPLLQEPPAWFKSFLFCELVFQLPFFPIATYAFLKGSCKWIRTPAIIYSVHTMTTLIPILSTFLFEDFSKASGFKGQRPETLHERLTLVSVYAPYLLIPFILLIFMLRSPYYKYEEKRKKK

CC(=O)N1CCC(c2ccc(C(=O)NC3=NCCN3)cc2C(F)(F)F)CC1 [BI 0054]
active: inhibition [27] 87.3%
inactive: residual activity [1] 100% | residual activity [2] 100% | residual activity [3] 70% | residual activity [4] 95% | residual activity [5] 88% | residual activity [6] 100% | residual activity [7] 72% | residual activity [8] 89% | residual activity [9] 94% | residual activity [10] 100% | residual activity [11] 100% | residual activity [12] 100% | residual activity [13] 98% | residual activity [14] 100% | residual activity [15] 100% | residual activity [16] 88% | residual activity [17] 100% | residual activity [18] 86% | residual activity [19] 100% | residual activity [20] 100% | residual activity [21] 89% | residual activity [22] 88% | residual activity [23] 95% | residual activity [24] 89% | residual activity [25] 92% | residual activity [26] 100% | residual activity [28] 95% | residual activity [29] 83% | residual activity [30] 100% | residual activity [31] 100% | residual activity [32] 100% | residual activity [33] 89% | residual activity [34] 100% | inhibition [35] 14.9% | residual activity [36] 82% | residual activity [37] 88% | residual activity [38] 100% | residual activity [39] 100% | residual activity [40] 90% | inhibition [41] -0.12% | residual activity [42] 98% | residual activity [43] 100% | residual activity [44] 99% | residual activity [45] 71%

CC(=O)N1CCC(c2ccc(C(=O)NC(=N)N)cc2C(F)(F)F)CC1 [BI 9627]
active: inhibition [27] 77.9%
inactive: residual activity [1] 100% | residual activity [2] 100% | residual activity [3] 97% | residual activity [4] 92% | residual activity [5] 80% | residual activity [6] 100% | residual activity [7] 95% | residual activity [8] 86% | residual activity [9] 98% | residual activity [10] 100% | residual activity [11] 100% | residual activity [12] 91% | residual activity [13] 100% | residual activity [14] 100% | residual activity [15] 100% | residual activity [16] 93% | residual activity [17] 94% | residual activity [18] 95% | residual activity [19] 100% | residual activity [20] 90% | residual activity [21] 100% | residual activity [22] 100% | residual activity [23] 98% | residual activity [24] 100% | residual activity [25] 93% | residual activity [26] 96% | residual activity [28] 100% | residual activity [29] 100% | residual activity [30] 92% | residual activity [31] 96% | residual activity [32] 100% | residual activity [33] 100% | residual activity [34] 100% | inhibition [35] -8.36% | residual activity [36] 100% | residual activity [37] 90% | residual activity [38] 100% | residual activity [39] 100% | residual activity [40] 100% | inhibition [41] -6.34% | residual activity [42] 96% | residual activity [43] 100% | residual activity [44] 100% | residual activity [45] 73%
